Reference: the NIST ThermoML archive (doi:10.1021/je101304x)
Numbers after ± are expanded uncertainties.

Settings: Liquid, Ebulliometric method (Recirculating still)

Compound: C=C(C)C(C)C [2,3-dimethyl-1-butene]
- vapor or sublimation pressure (341.87 K): 153.7 ± 1.3 kPa
- vapor or sublimation pressure (343.06 K): 158.1 ± 1.5 kPa
- vapor or sublimation pressure (343.95 K): 162.3 ± 1.3 kPa
- vapor or sublimation pressure (345.83 K): 171.3 ± 1.3 kPa
- vapor or sublimation pressure (347.12 K): 178.2 ± 1.4 kPa
- vapor or sublimation pressure (348.71 K): 186.4 ± 1.4 kPa
- vapor or sublimation pressure (350.49 K): 196.3 ± 1.4 kPa
- vapor or sublimation pressure (352.78 K): 208.6 ± 1.4 kPa
- vapor or sublimation pressure (353.27 K): 211.3 ± 1.7 kPa
- vapor or sublimation pressure (354.06 K): 216.3 ± 1.5 kPa
- vapor or sublimation pressure (356.15 K): 228.9 ± 1.5 kPa
- vapor or sublimation pressure (358.73 K): 244.9 ± 1.5 kPa
- vapor or sublimation pressure (361.3 K): 262.1 ± 1.6 kPa
- vapor or sublimation pressure (362.89 K): 273.7 ± 1.7 kPa
- vapor or sublimation pressure (363.19 K): 275.3 ± 1.9 kPa
- vapor or sublimation pressure (364.38 K): 284.9 ± 1.6 kPa
- vapor or sublimation pressure (365.57 K): 292.7 ± 1.7 kPa
- vapor or sublimation pressure (366.96 K): 303.8 ± 1.8 kPa
- vapor or sublimation pressure (368.24 K): 313.9 ± 1.7 kPa
- vapor or sublimation pressure (369.04 K): 319.7 ± 1.7 kPa
- vapor or sublimation pressure (370.13 K): 328.6 ± 1.8 kPa
- vapor or sublimation pressure (371.12 K): 336.4 ± 1.8 kPa
- vapor or sublimation pressure (372.21 K): 346.1 ± 1.9 kPa
- vapor or sublimation pressure (372.9 K): 351.5 ± 2.2 kPa
- vapor or sublimation pressure (373.7 K): 358.8 ± 1.9 kPa
- vapor or sublimation pressure (374.59 K): 366.7 ± 1.9 kPa
- vapor or sublimation pressure (375.19 K): 372.1 ± 1.9 kPa
- vapor or sublimation pressure (375.78 K): 377.4 ± 1.9 kPa
- vapor or sublimation pressure (376.87 K): 386.8 ± 1.9 kPa
- vapor or sublimation pressure (377.37 K): 391.7 ± 2 kPa

Compound: CO [methanol]
- vapor or sublimation pressure (333.42 K): 85.4 ± 1.2 kPa
- vapor or sublimation pressure (334.56 K): 89.5 ± 1.2 kPa
- vapor or sublimation pressure (337.65 K): 101.3 ± 1.2 kPa
- vapor or sublimation pressure (342.17 K): 120.9 ± 1.3 kPa
- vapor or sublimation pressure (343.06 K): 124.8 ± 1.5 kPa
- vapor or sublimation pressure (346.64 K): 142.6 ± 1.4 kPa
- vapor or sublimation pressure (350.25 K): 163.2 ± 1.5 kPa
- vapor or sublimation pressure (353.17 K): 181 ± 1.5 kPa
- vapor or sublimation pressure (353.27 K): 181.7 ± 1.7 kPa
- vapor or sublimation pressure (356.35 K): 202.7 ± 1.6 kPa
- vapor or sublimation pressure (358.91 K): 221.3 ± 1.7 kPa
- vapor or sublimation pressure (361.45 K): 241.4 ± 1.8 kPa
- vapor or sublimation pressure (363.19 K): 255.9 ± 2.1 kPa
- vapor or sublimation pressure (363.85 K): 261.6 ± 1.9 kPa
- vapor or sublimation pressure (366.88 K): 288.9 ± 2 kPa
- vapor or sublimation pressure (370.13 K): 321.3 ± 2.1 kPa
- vapor or sublimation pressure (372.04 K): 341.2 ± 2.3 kPa
- vapor or sublimation pressure (372.9 K): 350.9 ± 2.4 kPa
- vapor or sublimation pressure (375.89 K): 385.4 ± 2.3 kPa

Compound: c1ccccc1 [benzene]
- vapor or sublimation pressure (403.15 K): 379.3 ± 4.1 kPa

Compound: C1CCCCC1 [cyclohexane]
- vapor or sublimation pressure (403.15 K): 362.8 ± 3.9 kPa
